Measurements taken from patent US20250072423A1, “THIOPHENE ACETIC ACID FOR PLANT GROWTH REGULATION” (priority 2023, published 2025).

How the values were obtained:
[1] = test system: tobacco leaf explants; experiment: Shoot organogenesis from tobacco leaf explants in vitro (Experiment 4); format: cell-based, Nicotiana tabacum L. cv. Petit Havana SRI; details: 8 weeks
[2] = test system: AtGH3.3 (AT2G23170); experiment: qRT-PCR of early auxin-responsive gene AtGH3.3 (Experiment 9); format: in vivo, A. thaliana; details: 5 and 10 μM TAA, concentration and time-dependent
Protocol: (§1) To analyze TAA responsive genes in Arabidopsis, WT Arabidopsis seeds were germinated as described and 14-day-old uniform-looking seedlings were initially acclimatized in liquid germination medium for 2 hours before transferring to medium containing different concentrations of TAA (5 and 10 μM). Seedlings in media supplemented with DMSO were used as control. Five random seedlings were selected and considered as one sample and three samples from both control and treatments were flash frozen in liquid nitrogen and total RNA was isolated using a TRIzol reagent (ThermoFisher Scientific, Cat #15596026).
(§2) Expression levels of seven previously reported early auxin-responsive genes were verified by qRT-PCR (quantitative reverse transcription polymerase chain reaction). RNA reverse transcription was performed using QuantiTect Reverse Transcription Kit (Qiagen). Three biological replicates and three technical replicates were used for all qRT-PCRs. Arabidopsis actin gene (AT3G18780) was used as internal reference.

[3] = test system: AtIAA5 (AT1G15580); experiment: qRT-PCR of early auxin-responsive gene AtIAA5 (Experiment 9); format: in vivo, A. thaliana; details: 5 and 10 μM TAA
Protocol: as §1, §2

[4] = test system: AtPIN1 (AT1G73590); experiment: qRT-PCR of early auxin-responsive gene AtPIN1 (Experiment 9); format: in vivo, A. thaliana; details: 10 μM TAA, after 6 hours
Protocol: as §1, §2

[5] = test system: AtIAA29 (AT4G32280); experiment: qRT-PCR of early auxin-responsive gene AtIAA29 (Experiment 9); format: in vivo, A. thaliana; details: 5 and 10 μM TAA
Protocol: as §1, §2

[6] = test system: WT Arabidopsis seedlings; experiment: Root growth of WT Arabidopsis seedlings in the presence of NPA (Experiment 7); format: in vivo, A. thaliana; details: 5 μM TAA added, all NPA concentrations analyzed (0.5-8 μM)
Protocol: Arabidopsis Columbia-0 wild type (WT) was used for assessing the effect of TAA on root growth and its effects on the expression of auxin-responsive genes. Seeds of A. thaliana were surface sterilized by suspending in 70% ethanol for 1 minute, followed by treatment with 10% bleach for 20 minutes. After thorough washing with sterile distilled water, the sterilized seeds were plated onto germination medium (half-strength Murashige and Skoog basal medium with vitamins (1/2 MS) medium supplemented with 1% sucrose and 0.7% plant agar) for germination. Germination was initiated by incubating the seeds in darkness at 5° C. for 2 days, followed by transfer to a light environment at 22° C. with a photoperiod of 16-h light/8-h dark for further growth. Stock solutions of TAA were prepared in DMSO (dimethyl sulfoxide). In control treatments, DMSO was used in equal amounts as present in the greatest concentration of TAA tested.
To analyze the effect of TAA on root growth in the presence of NPA (N-1-naphthylphthalamic acid), WT Arabidopsis seedlings were germinated as described and uniform-looking 8-day-old seedlings were transferred to germination medium supplemented with different concentrations of TAA (5 and 10 μM) and different concentrations of NPA (0, 0.5, 1, 2, 4, and 8 μM). The seedlings were allowed to grow for 6 days and the plates were photographed at 24 h intervals. […]

[7] = test system: auxin-response promoter DR5
Protocol: Artificial auxin-response promoter DR5 that contains a minimal 35S promoter fused to 9 repeats of an AuxRE with strict auxin specificity and responsive to only active auxins is used to indirectly visualize auxin in plants.
To further analyze the ability of TAA to induce an auxin response in tobacco, seedlings from transgenic tobacco plants expressing reporter gene RFP (red fluorescent protein gene) under the control of DR5 promoter were treated with different concentrations of TAA and compared the pattern of RFP fluorescence to that generated by equimolar concentration of other reported auxins over time.
Induction of an auxin response by TAA was analyzed by detecting the expression of fluorescent reporter gene under the control of auxin response elements (AuxRE) in transgenic tobacco. Plant transformation vector DR5rev::erRFP carrying DsRED reporter gene under an auxin-responsive promoter was obtained from addgene (www.addgene.org, plasmid ID. 61011). The plasmid was introduced into the Agrobacterium strain LBA4404, using freeze-thaw transformation. Transgenic plants were selected on a medium containing 25 mg/L hygromycin and then verified by PCR (polymerase chain reaction). The rooted plants were grown in soil and PCR positive tobacco seedlings were used in further experiments.

[8] = test system: tomato cotyledon explants; experiment: Shoot regeneration from tomato cotyledon explants with 1 mg/L BAP (Experiment 3); format: cell-based, tomato cultivar Roma VF
Description: The sterilized seeds were germinated on half-strength Murashige and Skoog (MS) medium in vitro. Cotyledons from 10-day old seedlings before first true leaves emerged were used as starting explants in all the experiments. The base and tip of the cotyledons were excised and the explants were transferred with the abaxial surface in contact with the culture medium. The basic culture medium consists of MS medium with vitamins supplemented with 30 g/L sucrose and gelled with 0.8% agar, and the pH of the medium was adjusted to 5.8±0.2. […] All experiments were conducted with at least three replicates of 10 explants each.
To analyse the effects on shoot regeneration, the basic media was supplemented with 1 mg/L BAP and different concentrations of TAA, IAA, NAA, IBA and 2,4 D (0.05, 0.1, 0.5, 1.0 and 2.0 mg/L) individually. Since there are no previous reports on suitable concentration ranges for TAA in tomato regeneration, concentrations at 50.0, 100.0, 200.0 and 300.0 mg/L were analysed additionally for TAA.

O=C(O)Cc1ccsc1 [TAA] was tested, and the “number of shoots regenerated per explant versus basic shoot regeneration media” value ([1]; 1 mg/L TAA with 2 mg/L kinetin) was 3 times, the “total number of shoots regenerated versus basic shoot regeneration media” value ([1]; 1 mg/L TAA with 2 mg/L kinetin) was 3 times and the “number of shoots regenerated per explant versus basic shoot regeneration media” value ([1]; 2 mg/L TAA with 2 mg/L kinetin) was 3 times. For the same molecule, the “total number of shoots regenerated versus basic shoot regeneration media” value ([1]; 2 mg/L TAA with 2 mg/L kinetin) was 3 times, the “number of regenerated shoots versus basic shoot regeneration media” value ([1]; 3 mg/L TAA with 2 mg/L kinetin) was “more than double” and the “number of regenerated shoots versus basic shoot regeneration media” value ([1]; 5 mg/L TAA with 2 mg/L kinetin) was “more than double”. The “effect on shoot regeneration and size of regenerated shoots” value ([1]; TAA added to 3% MS + 2 mg/L kinetin) was “positive effect”, the AtGH3.3 upregulation [2] was “over 70 fold” and the AtIAA5 expression [3] was “induction”. The AtPIN1 gene expression [4] was “nearly five-fold”, the AtIAA29 expression [5] was “induction” and the “number of root hairs” value [6] was “increased the number of root hairs”. The “RFP after short-term treatment and withdrawal” value ([7]; 48 h after TAA withdrawal) was “detectable in roots even after 48 h of TAA withdrawal”, the “time to auxin reporter gene expression in primary root tips” value ([7]; all concentrations of TAA analyzed) was ≤ 30 min and the “spread of RFP fluorescence” value ([7]; by 48 h of treatment) was “RFP signal was observable in secondary roots”. For the same molecule, the “RFP signal at the root tip with increasing TAA concentrations” value ([7]; dose dependence) was “gradually increased”, the “time to necrosis of explants” value ([8]; 300 mg/L with 1 mg/L BAP) was ≤ 7 days and the survival of explants ([8]; 300 mg/L with 1 mg/L BAP, by Day 28) was “all explants were dead”. For the same molecule, the shoot organogenesis ([8]; 50.0, 100.0 and 200.0 mg/L with 1 mg/L BAP) was “did not show any shoot or root formation”.
